Legend:
[1] = molecular target: Mitogen-activated protein kinase kinase kinase 5 (Homo sapiens) (UniProt Q99683); settings: Compound concentration 1000.0 nM
[2] = molecular target: Ribosomal protein S6 kinase alpha-6 (Homo sapiens) (UniProt Q9UK32); settings: Compound concentration 1000.0 nM
[3] = molecular target: Tyrosine-protein kinase Lck (Homo sapiens) (UniProt P06239); settings: Compound concentration 1000.0 nM
[4] = molecular target: Ribosomal protein S6 kinase alpha-4 (Homo sapiens) (UniProt O75676); settings: Compound concentration 1000.0 nM
Sequence of Ribosomal protein S6 kinase alpha-4 (Homo sapiens) (O75676 whole entry, looked up): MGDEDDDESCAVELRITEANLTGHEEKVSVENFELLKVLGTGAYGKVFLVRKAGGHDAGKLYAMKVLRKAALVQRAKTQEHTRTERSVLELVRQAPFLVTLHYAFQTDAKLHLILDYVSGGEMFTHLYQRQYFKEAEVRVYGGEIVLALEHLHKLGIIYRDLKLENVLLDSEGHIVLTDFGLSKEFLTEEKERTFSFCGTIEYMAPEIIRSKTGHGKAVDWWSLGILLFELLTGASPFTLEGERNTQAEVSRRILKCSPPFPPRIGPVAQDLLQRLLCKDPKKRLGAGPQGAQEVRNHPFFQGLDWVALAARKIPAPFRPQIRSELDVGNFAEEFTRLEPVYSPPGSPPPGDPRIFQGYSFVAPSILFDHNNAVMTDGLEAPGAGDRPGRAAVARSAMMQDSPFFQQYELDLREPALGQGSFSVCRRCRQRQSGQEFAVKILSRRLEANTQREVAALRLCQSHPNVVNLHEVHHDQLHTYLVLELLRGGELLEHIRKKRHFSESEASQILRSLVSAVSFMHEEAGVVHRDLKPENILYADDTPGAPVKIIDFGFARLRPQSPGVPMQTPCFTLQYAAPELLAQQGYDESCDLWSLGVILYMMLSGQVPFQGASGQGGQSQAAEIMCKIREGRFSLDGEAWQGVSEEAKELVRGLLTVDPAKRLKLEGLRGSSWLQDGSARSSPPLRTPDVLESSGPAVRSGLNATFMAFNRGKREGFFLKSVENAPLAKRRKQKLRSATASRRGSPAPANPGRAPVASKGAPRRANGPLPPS

[5] = molecular target: D(2) dopamine receptor (Homo sapiens) (UniProt P14416); assay: D2S (h) Eurofins-Cerep binding assay; parameters: ligand concentration 0.3 nM; settings: filed as antagonist, Compound concentration 10.0 uM
[6] = molecular target: Beta-1 adrenergic receptor (Homo sapiens) (UniProt P08588); assay: Beta1 (h) Eurofins-Cerep binding assay; parameters: ligand concentration 0.3 nM; settings: filed as agonist, Compound concentration 10.0 uM
[7] = molecular target: Calcium/calmodulin-dependent protein kinase kinase 2 (Homo sapiens) (UniProt Q96RR4); settings: Compound concentration 1000.0 nM
[8] = tested on: Tyrosine-protein kinase ABL1 (Homo sapiens), P00519 [H396P]; settings: Compound concentration 1000.0 nM
[9] = molecular target: Rho-associated protein kinase 1 (Homo sapiens) (UniProt Q13464); settings: Compound concentration 1000.0 nM
[10] = molecular target: Rhodopsin kinase GRK1 (Homo sapiens) (UniProt Q15835); settings: Compound concentration 1000.0 nM
[11] = molecular target: MAO-A (amine oxidase [flavin-containing] A) (Rattus norvegicus, UniProt P21396); assay: MAO-A Eurofins-Cerep binding assay; parameters: incubation time 60 min, incubation temperature 37°C, ligand concentration 10 nM; settings: rat cerebral cortex (source of protein), probe [3H]Ro 41-1049 (10 nM), compound concentration 10 uM, read-out: % Inhibition of Control Specific Binding (Mean n=2)
Sequence of MAO-A (amine oxidase [flavin-containing] A) (P21396 whole entry): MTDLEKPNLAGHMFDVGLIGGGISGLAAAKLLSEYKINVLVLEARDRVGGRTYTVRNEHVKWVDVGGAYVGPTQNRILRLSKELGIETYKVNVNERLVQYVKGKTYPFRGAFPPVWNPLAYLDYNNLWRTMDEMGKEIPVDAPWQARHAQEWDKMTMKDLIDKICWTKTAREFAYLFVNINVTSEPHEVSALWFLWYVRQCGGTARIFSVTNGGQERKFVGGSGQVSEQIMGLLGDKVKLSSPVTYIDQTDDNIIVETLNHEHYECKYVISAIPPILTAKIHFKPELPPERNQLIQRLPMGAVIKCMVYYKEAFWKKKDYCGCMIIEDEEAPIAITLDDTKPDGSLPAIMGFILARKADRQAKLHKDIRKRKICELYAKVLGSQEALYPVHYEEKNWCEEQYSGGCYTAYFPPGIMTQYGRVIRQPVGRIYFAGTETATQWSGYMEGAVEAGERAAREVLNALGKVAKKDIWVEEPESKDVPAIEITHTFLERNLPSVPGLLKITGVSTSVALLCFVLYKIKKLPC

[12] = molecular target: Tyrosine-protein kinase ITK/TSK (Homo sapiens) (UniProt Q08881); settings: Compound concentration 1000.0 nM
[13] = molecular target: Homeodomain-interacting protein kinase 4 (Homo sapiens) (UniProt Q8NE63); settings: Compound concentration 1000.0 nM
[14] = molecular target: Cyclin-dependent kinase 2 (Homo sapiens) (UniProt P24941); settings: Compound concentration 1000.0 nM
[15] = molecular target: Acetylcholinesterase (Homo sapiens) (UniProt P22303); assay: Acetylcholinesterase (h) Eurofins-Cerep enzyme and uptake assay; settings: Compound concentration 10.0 uM
[16] = molecular target: Megakaryocyte-associated tyrosine-protein kinase (Homo sapiens) (UniProt P42679); settings: Compound concentration 1000.0 nM
[17] = molecular target: 5'-AMP-activated protein kinase catalytic subunit alpha-2 (Homo sapiens) (UniProt P54646); settings: Compound concentration 1000.0 nM
[18] = molecular target: Histamine H1 receptor (Homo sapiens) (UniProt P35367); assay: H1 (h) Eurofins-Cerep binding assay; parameters: ligand concentration 1 nM; settings: filed as antagonist, Compound concentration 10.0 uM
[19] = tested on: Receptor-type tyrosine-protein kinase FLT3 (Homo sapiens), P36888 [UNDEFINED MUTATION]; settings: Compound concentration 1000.0 nM
[20] = molecular target: Mitogen-activated protein kinase kinase kinase kinase 3 (Homo sapiens) (UniProt Q8IVH8); settings: Compound concentration 1000.0 nM
[21] = molecular target: Sodium-dependent dopamine transporter (Homo sapiens) (UniProt Q01959); assay: dopamine transporter (h) Eurofins-Cerep binding assay; parameters: ligand concentration 4 nM; settings: filed as antagonist, Compound concentration 10.0 uM
[22] = molecular target: Ephrin type-A receptor 5 (Homo sapiens) (UniProt P54756); settings: Compound concentration 1000.0 nM
[23] = molecular target: Receptor-interacting serine/threonine-protein kinase 2 (Homo sapiens) (UniProt O43353); settings: Compound concentration 1000.0 nM
[24] = molecular target: Tyrosine-protein kinase ABL2 (Homo sapiens) (UniProt P42684); settings: Compound concentration 1000.0 nM
[25] = tested on: Hepatocyte growth factor receptor (Homo sapiens), P08581 [M1250T]; settings: Compound concentration 1000.0 nM
[26] = molecular target: Cyclin-dependent kinase-like 5 (Homo sapiens) (UniProt O76039); settings: Compound concentration 1000.0 nM
[27] = molecular target: Proto-oncogene tyrosine-protein kinase Src (Homo sapiens) (UniProt P12931); settings: Compound concentration 1000.0 nM
[28] = molecular target: ALK tyrosine kinase receptor (Homo sapiens) (UniProt Q9UM73); settings: Compound concentration 1000.0 nM
[29] = tested on: Epidermal growth factor receptor (Homo sapiens), P00533 [UNDEFINED MUTATION]; settings: Compound concentration 1000.0 nM
[30] = molecular target: Serine/threonine-protein kinase STK11 (Homo sapiens) (UniProt Q15831); settings: Compound concentration 1000.0 nM
[31] = molecular target: Tyrosine-protein kinase HCK (Homo sapiens) (UniProt P08631); settings: Compound concentration 1000.0 nM
Sequence of Tyrosine-protein kinase HCK (Homo sapiens) (P08631 2-526 limits assumed): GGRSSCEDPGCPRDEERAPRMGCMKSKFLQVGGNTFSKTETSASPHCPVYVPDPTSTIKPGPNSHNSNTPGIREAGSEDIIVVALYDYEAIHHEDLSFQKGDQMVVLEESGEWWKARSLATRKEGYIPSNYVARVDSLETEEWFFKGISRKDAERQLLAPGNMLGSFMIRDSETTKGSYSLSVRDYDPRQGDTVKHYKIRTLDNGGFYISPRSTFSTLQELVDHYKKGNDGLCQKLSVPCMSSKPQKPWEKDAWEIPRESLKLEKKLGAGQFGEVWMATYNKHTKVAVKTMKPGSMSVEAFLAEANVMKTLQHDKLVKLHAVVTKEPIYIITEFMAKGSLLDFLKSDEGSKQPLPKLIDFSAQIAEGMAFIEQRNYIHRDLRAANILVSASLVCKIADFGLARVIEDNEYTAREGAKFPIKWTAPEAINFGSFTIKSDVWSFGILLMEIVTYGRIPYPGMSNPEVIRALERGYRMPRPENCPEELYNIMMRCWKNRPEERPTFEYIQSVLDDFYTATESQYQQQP

[32] = molecular target: Serine/threonine-protein kinase 24 (Homo sapiens) (UniProt Q9Y6E0); settings: Compound concentration 1000.0 nM
[33] = molecular target: Ribosomal protein S6 kinase alpha-4 (Homo sapiens) (UniProt O75676); settings: Compound concentration 1000.0 nM; remark: listed apart in the source
[34] = molecular target: Calcium/calmodulin-dependent protein kinase type 1 (Homo sapiens) (UniProt Q14012); settings: Compound concentration 1000.0 nM
[35] = molecular target: Serine/threonine-protein kinase 36 (Homo sapiens) (UniProt Q9NRP7); settings: Compound concentration 1000.0 nM
[36] = tested on: Phosphatidylinositol 4,5-bisphosphate 3-kinase catalytic subunit alpha isoform (Homo sapiens), P42336 [E545A]; settings: Compound concentration 1000.0 nM
[37] = molecular target: SRSF protein kinase 3 (Homo sapiens) (UniProt Q9UPE1); settings: Compound concentration 1000.0 nM
[38] = molecular target: Serine/threonine-protein kinase LATS1 (Homo sapiens) (UniProt O95835); settings: Compound concentration 1000.0 nM
Sequence of Serine/threonine-protein kinase LATS1 (Homo sapiens) (O95835 whole entry): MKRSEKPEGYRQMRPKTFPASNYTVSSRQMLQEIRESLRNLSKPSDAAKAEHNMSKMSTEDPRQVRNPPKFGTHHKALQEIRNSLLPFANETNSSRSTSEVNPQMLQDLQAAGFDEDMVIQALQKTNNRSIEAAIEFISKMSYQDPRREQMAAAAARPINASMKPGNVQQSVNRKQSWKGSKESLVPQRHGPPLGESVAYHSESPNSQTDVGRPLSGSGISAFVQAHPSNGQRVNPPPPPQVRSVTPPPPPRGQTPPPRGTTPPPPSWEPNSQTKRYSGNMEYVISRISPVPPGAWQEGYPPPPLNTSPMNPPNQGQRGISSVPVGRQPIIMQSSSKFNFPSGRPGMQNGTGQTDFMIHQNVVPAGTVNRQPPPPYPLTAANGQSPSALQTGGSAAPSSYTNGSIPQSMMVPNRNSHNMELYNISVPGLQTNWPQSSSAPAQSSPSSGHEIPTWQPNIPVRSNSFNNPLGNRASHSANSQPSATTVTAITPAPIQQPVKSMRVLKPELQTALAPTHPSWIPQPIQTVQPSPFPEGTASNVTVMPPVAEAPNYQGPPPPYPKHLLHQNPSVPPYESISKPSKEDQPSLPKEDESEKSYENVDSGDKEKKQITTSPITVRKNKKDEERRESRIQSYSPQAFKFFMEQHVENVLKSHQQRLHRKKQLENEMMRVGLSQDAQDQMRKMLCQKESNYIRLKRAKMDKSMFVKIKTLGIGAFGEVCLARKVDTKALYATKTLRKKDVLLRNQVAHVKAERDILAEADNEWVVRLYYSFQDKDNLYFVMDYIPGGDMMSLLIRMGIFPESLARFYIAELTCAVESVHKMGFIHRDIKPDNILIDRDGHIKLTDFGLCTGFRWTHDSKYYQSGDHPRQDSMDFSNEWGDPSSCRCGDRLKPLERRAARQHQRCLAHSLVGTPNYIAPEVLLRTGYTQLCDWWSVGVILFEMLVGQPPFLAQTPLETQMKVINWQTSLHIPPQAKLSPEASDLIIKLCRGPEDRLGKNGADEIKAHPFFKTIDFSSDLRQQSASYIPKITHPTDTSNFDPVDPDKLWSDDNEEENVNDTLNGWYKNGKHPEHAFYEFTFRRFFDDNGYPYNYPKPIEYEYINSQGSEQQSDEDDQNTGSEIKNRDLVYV

[39] = tested on: Mast/stem cell growth factor receptor Kit (Homo sapiens), P10721 [D816V]; settings: Compound concentration 1000.0 nM
[40] = molecular target: Mitogen-activated protein kinase 11 (Homo sapiens) (UniProt Q15759); settings: Compound concentration 1000.0 nM
[41] = molecular target: Serine/threonine-protein kinase TAO2 (Homo sapiens) (UniProt Q9UL54); settings: Compound concentration 1000.0 nM
[42] = tested on: Proto-oncogene tyrosine-protein kinase receptor Ret (Homo sapiens), P07949 [V804L]; settings: Compound concentration 1000.0 nM
Sequence of Proto-oncogene tyrosine-protein kinase receptor Ret (Homo sapiens), P07949 [V804L] (P07949 whole entry V804L): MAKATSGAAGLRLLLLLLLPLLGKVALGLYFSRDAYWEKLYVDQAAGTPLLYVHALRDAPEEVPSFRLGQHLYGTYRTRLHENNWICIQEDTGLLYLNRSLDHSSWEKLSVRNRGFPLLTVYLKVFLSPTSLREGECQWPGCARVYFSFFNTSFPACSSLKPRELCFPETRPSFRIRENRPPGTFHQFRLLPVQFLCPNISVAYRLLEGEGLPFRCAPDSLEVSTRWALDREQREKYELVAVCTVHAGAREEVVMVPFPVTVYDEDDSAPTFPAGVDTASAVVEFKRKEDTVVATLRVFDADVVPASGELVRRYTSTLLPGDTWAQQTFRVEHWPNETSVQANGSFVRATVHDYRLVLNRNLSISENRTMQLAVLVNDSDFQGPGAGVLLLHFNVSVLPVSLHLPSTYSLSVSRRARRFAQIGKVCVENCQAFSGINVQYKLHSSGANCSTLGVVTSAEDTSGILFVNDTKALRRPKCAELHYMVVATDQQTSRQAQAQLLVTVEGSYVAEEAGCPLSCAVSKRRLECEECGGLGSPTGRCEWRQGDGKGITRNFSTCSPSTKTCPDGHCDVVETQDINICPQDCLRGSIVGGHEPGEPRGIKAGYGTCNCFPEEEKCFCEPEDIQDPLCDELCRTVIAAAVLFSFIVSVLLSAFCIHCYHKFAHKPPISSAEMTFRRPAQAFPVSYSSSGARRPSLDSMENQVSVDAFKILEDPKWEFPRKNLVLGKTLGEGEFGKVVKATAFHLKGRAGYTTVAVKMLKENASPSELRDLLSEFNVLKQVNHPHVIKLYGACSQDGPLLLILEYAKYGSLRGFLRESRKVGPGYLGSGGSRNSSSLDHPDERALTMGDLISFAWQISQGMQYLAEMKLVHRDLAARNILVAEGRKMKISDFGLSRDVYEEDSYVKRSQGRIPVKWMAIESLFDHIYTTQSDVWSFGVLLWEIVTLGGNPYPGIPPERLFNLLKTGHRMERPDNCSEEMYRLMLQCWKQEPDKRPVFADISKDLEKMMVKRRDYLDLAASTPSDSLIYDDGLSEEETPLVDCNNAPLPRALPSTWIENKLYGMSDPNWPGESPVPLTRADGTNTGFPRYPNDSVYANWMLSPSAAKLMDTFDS

[43] = molecular target: Ephrin type-A receptor 3 (Homo sapiens) (UniProt P29320); settings: Compound concentration 1000.0 nM
Sequence of Ephrin type-A receptor 3 (Homo sapiens) (P29320 whole entry, canonical isoform): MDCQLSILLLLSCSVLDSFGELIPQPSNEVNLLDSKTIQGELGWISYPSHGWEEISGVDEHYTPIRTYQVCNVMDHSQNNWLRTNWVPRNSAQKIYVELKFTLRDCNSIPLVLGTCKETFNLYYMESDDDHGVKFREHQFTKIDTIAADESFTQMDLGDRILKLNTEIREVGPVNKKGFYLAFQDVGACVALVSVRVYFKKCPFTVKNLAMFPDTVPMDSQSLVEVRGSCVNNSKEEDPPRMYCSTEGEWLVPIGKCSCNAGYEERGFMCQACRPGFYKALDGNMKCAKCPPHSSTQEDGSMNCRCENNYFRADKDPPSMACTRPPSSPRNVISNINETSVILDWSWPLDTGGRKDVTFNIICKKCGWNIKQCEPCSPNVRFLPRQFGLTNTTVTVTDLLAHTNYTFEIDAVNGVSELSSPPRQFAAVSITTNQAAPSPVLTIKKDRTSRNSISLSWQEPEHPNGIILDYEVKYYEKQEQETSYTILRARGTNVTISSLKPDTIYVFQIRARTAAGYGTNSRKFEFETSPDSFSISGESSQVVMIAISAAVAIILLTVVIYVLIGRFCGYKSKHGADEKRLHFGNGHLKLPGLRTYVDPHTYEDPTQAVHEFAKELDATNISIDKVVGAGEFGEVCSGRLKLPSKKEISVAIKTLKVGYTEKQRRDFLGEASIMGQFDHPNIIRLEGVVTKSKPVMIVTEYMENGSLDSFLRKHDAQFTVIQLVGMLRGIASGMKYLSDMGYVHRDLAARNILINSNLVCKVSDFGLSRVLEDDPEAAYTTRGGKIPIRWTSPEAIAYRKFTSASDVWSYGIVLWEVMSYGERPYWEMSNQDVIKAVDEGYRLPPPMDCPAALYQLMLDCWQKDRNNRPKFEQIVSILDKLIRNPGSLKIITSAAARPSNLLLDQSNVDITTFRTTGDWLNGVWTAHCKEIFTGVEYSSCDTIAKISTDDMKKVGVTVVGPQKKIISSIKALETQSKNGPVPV

[44] = molecular target: Casein kinase I isoform delta (Homo sapiens) (UniProt P48730); settings: Compound concentration 1000.0 nM

## CCCOc1ccc([C@H]2[C@H](C(=O)O)[C@@H](c3ccc4c(c3)OCO4)CN2CC(=O)Nc2c(CC)cccc2CC)cc1 [A-192621]
[1]
  residual activity: 91%
[2]
  residual activity: 78%
[3]
  residual activity: 100%
[4]
  residual activity: 68%
[5]
  % Inhibition of Control Specific Binding (Mean n=2): 2.6%
[6]
  % Inhibition of Control Specific Binding (Mean n=2): 1.4%
[7]
  residual activity: 93%
[8]
  residual activity: 81%
[9]
  residual activity: 65%
[10]
  residual activity: 68%
[11]
  inhibition at 60 min, 10 µM: 7.9%
[12]
  residual activity: 96%
[13]
  residual activity: 70%
[14]
  residual activity: 87%
[15]
  % Inhibition of Control Values (Mean n=2): 7%
[16]
  residual activity: 83%
[17]
  residual activity: 100%
[18]
  % Inhibition of Control Specific Binding (Mean n=2): -4.4%
[19]
  residual activity: 81%
[20]
  residual activity: 85%
[21]
  % Inhibition of Control Specific Binding (Mean n=2): 23.6%
[22]
  residual activity: 100%
[23]
  residual activity: 100%
[24]
  residual activity: 100%
[25]
  residual activity: 71%
[26]
  residual activity: 85%
[27]
  residual activity: 99%
[28]
  residual activity: 100%
[29]
  residual activity: 100%
[30]
  residual activity: 88%
[31]
  residual activity: 92%
[32]
  residual activity: 84%
[33]
  residual activity: 84%
[34]
  residual activity: 93%
[35]
  residual activity: 98%
[36]
  residual activity: 92%
[37]
  residual activity: 100%
[38]
  residual activity: 77%
[39]
  residual activity: 92%
[40]
  residual activity: 95%
[41]
  residual activity: 74%
[42]
  residual activity: 93%
[43]
  residual activity: 86%
[44]
  residual activity: 80%

## CCCOc1ccc([C@@H]2[C@@H](C(=O)O)[C@H](c3ccc4c(c3)OCO4)CN2CC(=O)Nc2c(CC)cccc2CC)cc1 [A-1806262]
[1]
  residual activity: 97%
[2]
  residual activity: 91%
[3]
  residual activity: 100%
[4]
  residual activity: 90%
[5]
  % Inhibition of Control Specific Binding (Mean n=2): 1.8%
[6]
  % Inhibition of Control Specific Binding (Mean n=2): 8.2%
[7]
  residual activity: 84%
[8]
  residual activity: 90%
[9]
  residual activity: 81%
[10]
  residual activity: 100%
[11]
  inhibition at 60 min, 10 µM: 9.9%
[12]
  residual activity: 100%
[13]
  residual activity: 65%
[14]
  residual activity: 87%
[15]
  % Inhibition of Control Values (Mean n=2): 4%
[16]
  residual activity: 90%
[17]
  residual activity: 95%
[18]
  % Inhibition of Control Specific Binding (Mean n=2): -10%
[19]
  residual activity: 91%
[20]
  residual activity: 100%
[21]
  % Inhibition of Control Specific Binding (Mean n=2): 18.3%
[22]
  residual activity: 100%
[23]
  residual activity: 84%
[24]
  residual activity: 96%
[25]
  residual activity: 81%
[26]
  residual activity: 83%
[27]
  residual activity: 100%
[28]
  residual activity: 100%
[29]
  residual activity: 100%
[30]
  residual activity: 100%
[31]
  residual activity: 92%
[32]
  residual activity: 74%
[33]
  residual activity: 97%
[34]
  residual activity: 100%
[35]
  residual activity: 88%
[36]
  residual activity: 92%
[37]
  residual activity: 93%
[38]
  residual activity: 57%
[39]
  residual activity: 99%
[40]
  residual activity: 98%
[41]
  residual activity: 91%
[42]
  residual activity: 97%
[43]
  residual activity: 99%
[44]
  residual activity: 83%

— ChEMBL document CHEMBL4507261, “Data for DCP probe A-192621” (2021)
